Test results from the METLIN SMRT retention time set (Domingo-Almenara et al. 2019).

Test: gradient 5% acetonitrile 3 min, to 50% in 2 min, to 85% in 15 min, held 3 min, 100 µL/min
Conditions: column: Zorbax Extend-C18 2.1 x 50 mm; eluents: water / acetonitrile, 0.1% formic acid
Procedure, shortened: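 The system's dead and dwell volumes were 40 μL and 900 μL, with a Zorbax Extend-C18 column (2.1 × 50 mm, 1.8 μm) run at 100 μL/min in water and acetonitrile containing 0.1% formic acid each. Pure standards were analyzed in mixtures of ~100 molecules by HPLC–quadrupole time-of-flight mass spectrometry in positive and negative ionization mode. Retention time was assigned from computationally picked, manually inspected adduct peaks.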

Row | RP-LC retention time | Compound
1 | 646 s | Cc1ccc(F)c2c(=O)c3c([nH]c12)CCN(CC(=O)Nc1ccc(Cl)cc1)C3
2 | 915 s | COC(=O)c1cc2c(=O)n(-c3ccc(Cl)c(Cl)c3)ccc2nc1C
3 | 586 s | CN1C(=O)Cc2cc(NC(=O)c3ccno3)ccc21
4 | 538 s | Cc1noc([C@@H]2CN(C(=O)c3ccc(Cn4ccnc4)o3)C[C@H]2C(N)=O)n1
5 | 647 s | Cc1nnc(Cc2ccccc2)c2n[nH]c(C)c12
6 | 946 s | Cc1ccc(NC(=O)c2nc(C)oc2C)c(F)c1
7 | 802 s | CC(Oc1ccc(=O)n(-c2ccc(F)cc2)n1)C(=O)Nc1cccc(Cl)c1 (stereo not given)
8 | 793 s | CN1C(C(=O)Nc2ccccn2)=C(O)c2sc(Cl)cc2S1(=O)=O
9 | 671 s | O=C(CSc1nccn1-c1ccc(C(=O)NCc2cccs2)cc1)Nc1ccccc1
10 | 733 s | O=C(CCCN1CCN(Cc2ccc(F)cc2)C(=O)C1=O)NCCc1ccc(Cl)cc1
11 | 601 s | Cc1cccc(NC(=O)Cn2c(N)nc(C)cc2=O)c1
12 | 1020 s | O=C1CC(c2nc(-c3cccc(C(F)(F)F)c3)no2)CN1c1ccc2c(c1)OCO2 (stereo not given)
13 | 1060 s | CCOC(=O)Cn1c(=O)c2cnc(-c3ccc(C)cc3)nc2n(C)c1=O
14 | 749 s | CCN1c2ccc(F)cc2C(=O)NC12CCN(C(=O)c1ccc3c(c1)OCO3)CC2
15 | 933 s | CCOC(=O)c1c(C)[nH]c(CCC(=O)Nc2cc(F)ccc2F)c1C
16 | 798 s | CCCS(=O)(=O)N1CCCC(C)(C(=O)NCc2ccc(OC)cc2)C1 (stereo not given)
17 | 667 s | Cc1nnc([C@@H]2CC(F)(F)CN2C(=O)COc2ccccc2)o1
18 | 649 s | Cc1nnc(CNC(=O)c2cc(-c3ccc(F)cc3)c[nH]2)o1
19 | 1120 s | COC(=O)c1ccc(NC(=O)C2CCCN(c3nc4ccccc4nc3OC)C2)cc1 (stereo not given)
20 | 794 s | O=C(Nc1ccc(F)cc1)N1CCC(N2CCN(Cc3ccccc3)C2=O)CC1
21 | 637 s | CCOc1ccc(-c2n[nH]c3c2C(c2ccc(O)c(OC)c2)NC3=O)cc1 (stereo not given)
22 | 772 s | Cc1cc(Cl)ccc1NS(=O)(=O)c1cc(-c2[nH]ncc2C(=O)N2CCCC2)oc1C
23 | 1030 s | O=C1C2N=NN(Cc3nc(-c4ccc(Br)cc4)no3)C2C(=O)N1c1ccccc1 (stereo not given)
24 | 772 s | CCOC(=O)N1CCC(NC(=O)Cn2cc(-c3ccc(C)cc3)oc2=O)CC1
25 | 960 s | Cc1cccc(NC(=O)Cn2nc(N3CCCC3)c3ccccc3c2=O)c1

Row | RP-LC retention time | Compound
26 | 666 s | Cc1ccc(NC(=O)NCCn2c(-c3ccncc3)nc3cccnc32)cc1Cl
27 | 1030 s | Cc1ccc(CN(C(=O)COc2cc(C)c(Cl)c(C)c2)C2CCS(=O)(=O)C2)o1 (stereo not given)
28 | 805 s | Cc1noc2nc(C)n(CC(=O)NCc3cccc(Br)c3)c(=O)c12
29 | 889 s | CC(C)N1C(=O)c2cccnc2Sc2cc(NC(=O)COc3ccccc3)ccc21
30 | 649 s | Cc1cc(=O)n(CC(=O)Nc2ccccc2F)c(N2CCCCC2)n1
31 | 1020 s | Cc1ccc(NC(=O)c2cc3c(=O)n(CC(C)C)ccc3n2C)cc1Cl
32 | 598 s | CCC(C)NC(=O)N1CCn2nnc(CCC(=O)N3CCOCC3)c2C1 (stereo not given)
33 | 642 s | OCc1nnn(-c2ccccc2)c1CO
34 | 979 s | CCC(c1cccs1)N1C(=O)[C@H]2CN(S(=O)(=O)c3ccc(F)cc3)C[C@H]2C1=O (stereo not given in full)
35 | 818 s | CCCn1c(=O)sc2cc(S(=O)(=O)N3CCC(C(=O)NC(C)C)CC3)ccc21
36 | 971 s | Cc1cc(C)n(CC(=O)N2CCN(c3ccccc3F)CC2)c1-c1nc(C2CC2)no1
37 | 1290 s | CCOc1ccc(-c2noc(Cc3nc(-c4ccc(F)cc4)cs3)n2)cc1
38 | 668 s | CS(=O)(=O)c1ccc(Nc2ncccc2S(N)(=O)=O)cc1
39 | 603 s | CSc1nnc(NC(=O)CN(C)S(C)(=O)=O)s1
40 | 711 s | COCc1noc([C@@H]2CC(F)(F)CN2C(=O)C(C)C)n1
41 | 956 s | CCOc1ccccc1-c1noc(Cn2c(=O)n(-c3ccc(F)cc3)c(=O)c3sccc32)n1
42 | 721 s | Cc1cc2[nH]c(C(=O)Nc3ccc(F)cc3Cl)c(CN3CCOCC3)c2s1
43 | 681 s | COc1ccc2cc(C(=O)N3CCC(CC(=O)NCC4CCCO4)CC3)[nH]c2c1 (stereo not given)
44 | 920 s | CC1CCN(c2cc(-n3cnc(C(=O)N4CCCCC4)c3)ncn2)CC1
45 | 912 s | CC(C)CCNC(=O)c1ccc2c(=O)n(-c3ccc(F)cc3)c(N3CCCC3)nc2c1
46 | 775 s | CC(C)N1C(=O)C2(CCCC2)C1C(=O)NCC1CCCCC1 (stereo not given)
47 | 642 s | CCn1nc(N2CCCC(NS(=O)(=O)c3c(C)nn(C)c3C)C2)ccc1=O (stereo not given)
48 | 879 s | CCCN1C(=O)c2c(C(=O)NCc3cccc(C)c3)ncn2CC1(C)C(=O)NCCC(C)C (stereo not given)
49 | 1070 s | COc1ccc(NC(=O)N2CCN(c3nc4ccccc4nc3C(F)(F)F)CC2)c(OC)c1

Further lines, the compound ahead of its results:

Row | Compound | RP-LC retention time
50 | Cn1cc(C2=CCN(S(=O)(=O)c3cccc(F)c3)CC2)c2cccnc21 | 969 s
51 | O=C(c1[nH]nc2c1COc1ccccc1-2)N1CC(c2noc(COc3ccc(F)cc3)n2)C1 | 943 s
52 | O=c1c2cc(-c3ccc(F)cc3)nn2ccn1Cc1noc(CN2CCc3ccccc32)n1 | 1050 s
53 | COc1ccc(CNC(=O)C2CCCN(c3nc4c(s3)c(C)nn4-c3ccc(Cl)cc3)C2)cc1 (stereo not given) | 1200 s
54 | O=C(NCCn1c(-c2ccc(F)cc2)nc2cccnc21)c1ccc2c(c1)OCO2 | 697 s
55 | O=C(Nc1cccc(F)c1)C1CCN(C(=O)c2ncn3c2COC(c2ccccc2)C3)CC1 (stereo not given) | 921 s
56 | CC(Oc1ccccc1)C(=O)N1CCC(c2cc(N)on2)CC1 (stereo not given) | 674 s
57 | COc1ccc(CCC(=O)N2CCC(c3cc(N)on3)CC2)cc1 | 681 s
58 | COC(=O)c1c(C)[nH]c(C(=O)N2CCC(CC(=O)N3CCCC3)CC2)c1C | 628 s
59 | Cc1nc(OCC(=O)N2CCc3ccccc32)c2c(-c3ccccc3)noc2n1 | 1100 s
60 | COc1ccc(NC(=O)N2C[C@@H](F)C[C@H]2C(=O)N2CCCCC2)cc1OC | 643 s
61 | O=C(Nc1ccc2c(c1)OCO2)N(Cc1ccsc1)CC(F)(F)F | 858 s
62 | N#Cc1ccc(CN2C[C@@H](CO)[C@H](c3nc(C4CC4)no3)C2)cc1 | 600 s
63 | COc1ccccc1CC(=O)N1CCC2(CC1)N=C(c1ccc(Cl)cc1)NO2 | 884 s
64 | O=C(CCn1nnc2cc(-c3noc(Cc4cccc(F)c4)n3)ccc21)N1CCCC1 | 855 s
65 | CCOC(=O)c1noc2ncnc(NCCCN3CCCc4ccccc43)c12 | 1240 s
66 | COc1ccc(CCn2c(-c3cccs3)nc3c(c(=O)c4ccccc4n3C)c2=O)cc1 | 880 s
67 | CCn1nccc1-c1cccc(-c2noc(-c3cc(OC)cc(OC)c3)n2)c1 | 1240 s
68 | COc1ccc(CNS(=O)(=O)c2cc3n(c2)CCN(C(C)C)C3=O)cc1 | 712 s
69 | Cc1nnc2ccc(-c3noc(Cc4cccc(Cl)c4)n3)cn12 | 871 s
70 | COc1ccc(-c2cn3cccnc3n2)cc1NS(=O)(=O)c1ccc(C)cc1 | 690 s

Row | Compound | RP-LC retention time
71 | Cc1ccc(CNC(=O)C(C)Oc2cc(-c3ccccc3)c3c(C)nn(C)c3n2)o1 (stereo not given) | 769 s
72 | COc1cc2c(cc1O)CCC1C2CC[C@@]2(C)C1CC[C@@H]2O (stereo not given in full) | 836 s
73 | O=C(NCC1CCOCC1)Nc1cccc(Br)c1 | 749 s
74 | CCOC(=O)C1=C(CNc2ccc(F)cc2F)NC(=O)NC1c1ccccc1 (stereo not given) | 886 s
75 | Cc1nc(-c2noc(-c3ccc(F)cc3)n2)cn1CC(=O)NCc1ccccc1F | 824 s
76 | COc1ccc(OC)c(CNC(=O)C2CCN(Cc3cn(C)c4ccc(Cl)cc34)CC2)c1 | 717 s
77 | CCOc1ccc(-c2nc(C3CC(=O)N(c4ccc(CC)cc4)C3)no2)cc1OCC (stereo not given) | 1180 s
78 | Cc1nn(Cc2nc(-c3ccc(NC(=O)C4CCCO4)cc3)oc2C)c(C)c1C (stereo not given) | 793 s
79 | Cc1oc2ncn(CC(=O)N3CCC(C(N)=O)CC3)c(=O)c2c1C | 613 s
80 | Cn1cccc1Cc1nnc(SCC(=O)NCC2CCCO2)n1Cc1ccccc1 (stereo not given) | 741 s
81 | O=C(NC1CC1)C1(CCO)CCN(Cc2ccccc2)C1 (stereo not given) | 564 s
82 | COC[C@@H]1OCCN(S(=O)(=O)c2cn(C)cn2)[C@H]1c1ccccc1 | 686 s
83 | O=C(NCC(F)(F)F)c1cnccn1 | 597 s
84 | COc1ccc(-c2c(C)noc2NC(C)=O)cc1S(=O)(=O)NCCC1=CCCCC1 | 886 s
85 | O=S(=O)(NCc1ccc2[nH]c3c(c2c1)CCCC3)c1ccccc1 | 600 s
86 | CCN1C(=O)CCc2cc(NC(=O)Cc3ccccc3Cl)ccc21 | 795 s
87 | CC(=O)NCCSc1c(-c2ccc(Cl)cc2)[nH]c2ccccc12 | 800 s
88 | CCn1cc(C)c(C(=O)O)c1CC(=O)NCCCN1CCOCC1 | 588 s
89 | CN1C(=O)c2ccccc2Oc2ccc(C(=O)NCc3ccco3)cc21 | 788 s
90 | CCOC(=O)CNC(=O)N1CCN(Cc2nc3cccnc3n2-c2ccc(CC)cc2)CC1 | 654 s
